Measurements from patent publication US20260356851A1, “TRICYCLIC COMPOUNDS AND USES THEREOF” (HUTCHMED LIMITED, priority 2023, published 2026).
Where two headings read alike, the source gives them in different places.

What was measured:
Format in all cases: cell-based
[1] = molecular target: T1, pERK1/2 (Thr202/Tyr204), NCI-1H441 (KRAS G12V) (Homo sapiens, UniProt P01116, G12V); assay: Assay of intracellular pERK1/2 (Thr202/Tyr204) phosphorylation in NCI-H441 cells (KRAS G12V)
T1 construct: pERK1/2 HTRF read-out
T1 sequence (P01116 1-188 isoform P01116-2 G12V): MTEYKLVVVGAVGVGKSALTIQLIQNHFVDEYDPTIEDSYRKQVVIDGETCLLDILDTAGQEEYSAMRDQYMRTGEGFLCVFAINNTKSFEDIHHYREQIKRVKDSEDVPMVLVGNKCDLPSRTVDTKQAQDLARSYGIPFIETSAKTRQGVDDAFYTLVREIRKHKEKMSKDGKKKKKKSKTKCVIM
How it was run: (§1)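 HTRF detection of Thr202/Tyr204-phosphorylated ERK1/2 (665/615 nm ratio) in lysates from cells treated 2 days with serially 3-fold diluted compound.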

[2] = molecular target: T2, pERK1/2 (Thr202/Tyr204), NCI-1H358 (KRAS G12C) (Homo sapiens, UniProt P01116, G12C); assay: Assay of intracellular pERK1/2 (Thr202/Tyr204) phosphorylation in NCI-H358 cells (KRAS G12C)
T2 construct: pERK1/2 HTRF read-out
T2 sequence (P01116 1-188 isoform P01116-2 G12C): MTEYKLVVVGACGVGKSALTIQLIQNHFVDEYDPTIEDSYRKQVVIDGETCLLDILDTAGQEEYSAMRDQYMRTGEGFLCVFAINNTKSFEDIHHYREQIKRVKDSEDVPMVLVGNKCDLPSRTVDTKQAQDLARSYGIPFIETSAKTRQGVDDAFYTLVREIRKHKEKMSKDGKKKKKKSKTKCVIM
How it was run: as §1

[3] = molecular target: T3, pERK1/2 (Thr202/Tyr204), PANC-1 (KRAS G121D) (Homo sapiens, UniProt P01116, G12D); assay: Assay of intracellular pERK1/2 (Thr202/Tyr204) phosphorylation in PANC-1 cells (KRAS G12D)
T3 construct: pERK1/2 HTRF read-out
T3 sequence (P01116 1-188 isoform P01116-2 G12D): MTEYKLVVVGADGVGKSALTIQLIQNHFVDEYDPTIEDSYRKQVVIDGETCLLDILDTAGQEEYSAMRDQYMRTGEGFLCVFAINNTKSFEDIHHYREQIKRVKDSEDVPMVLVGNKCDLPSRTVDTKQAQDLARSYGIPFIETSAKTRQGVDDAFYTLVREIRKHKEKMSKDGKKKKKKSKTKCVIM
How it was run: as §1

[4] = pERK1/2, 2 days, read-out: NCI-H441 (KRAS G12V) IC50
[5] = pERK1/2, 2 days, read-out: NCI-H358 (KRAS G12C) IC50
[6] = pERK1/2, 2 days, read-out: PANC-1 (KRAS G12D) IC50

Question: With `[2H]C([2H])(Oc1nc2c3c(nc(-c4cc(N)cc(C)c4C(F)(F)F)c(F)c3n1)OCCN2C(C)c1cccnc1N)[C@@H]1C[C@@H](F)CN1C([2H])([2H])[2H]` (single isomer, unassigned) [Compound 133, 3-((R or S)-1-(5-(5-amino-3-methyl-2-(trifluoromethyl)phenyl)-4-fluoro-2-(((2S,4R)-4-fluoro-1-(methyl-d3)pyrrolidin-2-yl)methoxy-d2)-8,9-dihydro-10H-7-oxa-1,3,6,10-tetraazacyclohepta[de]naphthalen-10-yl)ethyl)pyridin-2-amine] as the molecule, how does the IC50 [1, 4] read?
Answer: 10 nM

Question: What about the IC50 [2, 5] of the same molecule?
Answer: 3 nM

Question: What about the IC50 [3, 6] of the same molecule?
Answer: > 100 nM

Question: `CC(c1cccnc1N)N1c2nc(OC[C@@]34CCCN3C[C@H](F)C4)nc3c(F)c(-c4c(C(F)(F)F)ccc5c4CCCN5)nc(c23)OC[C@@H]1C` (single isomer, unassigned; diastereomer 2) [Compound 339, (*)3-(1-((5R or 5S,9S)-4-fluoro-2-(((2R,7aS)-2-fluorotetrahydro-1H-pyrrolizin-7a(5H)-yl)methoxy)-9-methyl-5-(6-(trifluoromethyl)-1,2,3,4-tetrahydroquinolin-5-yl)-8,9-dihydro-10H-7-oxa-1,3,6,10-tetraazacyclohepta[de]naphthalen-10-yl)ethyl)pyridin-2-amine (diastereomer 2)] was tested. Which IC50 [1, 4] did it give?
Answer: > 100 nM

Question: What about the IC50 [2, 5] of the same molecule?
Answer: > 100 nM

Question: What about the IC50 [3, 6] of the same molecule?
Answer: > 100 nM

Question: `CC(c1cccnc1N)N1c2nc(OC[C@@]34CCCN3C[C@H](F)C4)nc3c(F)c(-c4ccc(F)c5sc(N)nc45)nc(c23)OC[C@@H]1C` (stereo partly drawn) [Compound 320] was tested. Which IC50 [1, 4] did it give?
Answer: 4 nM

Question: And the IC50 [2, 5]?
Answer: 0.9 nM

Question: What about the IC50 [3, 6] of the same molecule?
Answer: 28 nM

Question: With `Cc1nc(N)cc(-c2nc3c4c(nc(OC[C@@]56CCCN5C[C@H](F)C6)nc4c2F)N(C(C)c2cccnc2N)CCO3)c1C(F)(F)F` (stereo partly drawn) [Compound 83] as the molecule, how does the IC50 [1, 4] read?
Answer: 3 nM

Question: What about the IC50 [2, 5] of the same molecule?
Answer: 0.6 nM

Question: And the IC50 [3, 6]?
Answer: 29 nM

Question: Which results are given for `CC(c1cccnc1N)N1CCOc2nc(-c3cc(N)c(F)cc3C(F)(F)F)c(F)c3nc(OC[C@@]45CCCN4C[C@H](F)C5)nc1c23` (stereo partly drawn) [Compound 135]?
Answer: IC50 [1, 4]: 3 nM; IC50 [2, 5]: 2 nM; IC50 [3, 6]: 30 nM

Question: For `Cc1cc(N)cc(-c2nc3c4c(nc(OC[C@@H]5C[C@@H](F)CN5C)nc4c2F)N(C(C)c2cccnc2N)[C@@H](C)CO3)c1C(F)(F)F` (single isomer, unassigned) [Compound 282, 3-((R or S)-1-((S)-5-(5-amino-3-methyl-2-(trifluoromethyl)phenyl)-4-fluoro-2-(((2S,4R)-4-fluoro-1-methylpyrrolidin-2-yl)methoxy)-9-methyl-8,9-dihydro-10H-7-oxa-1,3,6,10-tetraazacyclohepta[de]naphthalen-10-yl)ethyl)pyridin-2-amine], which IC50 [1, 4] is on record?
Answer: 0.4 nM

Question: And the IC50 [2, 5]?
Answer: 0.2 nM

Question: And the IC50 [3, 6]?
Answer: 3 nM

Question: `Cc1c(F)c(N)cc(-c2nc3c4c(nc(OC[C@@]56CCCN5C[C@H](F)C6)nc4c2F)N(C(C)c2cccnc2N)C[C@H](C)O3)c1C(F)(F)F` (single isomer, unassigned) [Compound 253, 3-((R or S)-1-((S)-5-(5-amino-4-fluoro-3-methyl-2-(trifluoromethyl)phenyl)-4-fluoro-2-(((2R,7aS)-2-fluorotetrahydro-1H-pyrrolizin-7a(5H)-yl)methoxy)-8-methyl-8,9-dihydro-10H-7-oxa-1,3,6,10-tetraazacyclohepta[de]naphthalen-10-yl)ethyl)pyridin-2-amine] was tested. Which IC50 [1, 4] did it give?
Answer: > 100 nM

Question: And the IC50 [2, 5]?
Answer: > 100 nM

Question: What about the IC50 [3, 6] of the same molecule?
Answer: > 100 nM

Question: With `CC(c1cccnc1N)N1CCOc2nc(-c3cc(O)cc(Cl)c3C3CC3)c(F)c3nc(OC[C@@H]4CCN4CC(F)F)nc1c23` (single isomer, unassigned) [Compound 21, 3-(10-((R or S)-1-(2-aminopyridin-3-yl)ethyl)-2-(((S)-1-(2,2-difluoroethyl)azetidin-2-yl)methoxy)-4-fluoro-9,10-dihydro-8H-7-oxa-1,3,6,10-tetraazacyclohepta[de]naphthalen-5-yl)-5-chloro-4-cyclopropylphenol] as the molecule, how does the IC50 [1, 4] read?
Answer: 3 nM

Question: What about the IC50 [2, 5] of the same molecule?
Answer: 0.5 nM

Question: And the IC50 [3, 6]?
Answer: 82 nM

Question: What does the source list for `CC(c1cccnc1N)N1c2nc(OC[C@@]34CCCN3C[C@H](F)C4)nc3c(F)c(-c4c5cccnc5cc5[nH]ncc45)nc(c23)OC[C@@H]1C` (stereo partly drawn) [Compound 375]?
Answer: IC50 [1, 4]: 94 nM; IC50 [2, 5]: 8 nM; IC50 [3, 6]: > 100 nM

Question: Which results are given for `[2H]C1([2H])CN(C([2H])(C)c2cccnc2N)c2nc(OC[C@@]34CCCN3C[C@H](F)C4)nc3c(F)c(-c4cc(N)cc(C)c4C(F)(F)F)nc(c23)O1` (stereo partly drawn) [Compound 141]?
Answer: IC50 [1, 4]: 0.7 nM; IC50 [2, 5]: 0.3 nM; IC50 [3, 6]: > 100 nM

Question: `CC(c1cccnc1N)N1c2nc(OC[C@@]34CCCN3C[C@H](F)C4)nc3c(F)c(-c4c(Cl)c(C(F)(F)F)cc5[nH]ncc45)nc(c23)OC[C@@H]1C` (single isomer, unassigned) [Compound 361] was tested. Which IC50 [1, 4] did it give?
Answer: 5 nM

Question: And the IC50 [2, 5]?
Answer: 2 nM

Question: And the IC50 [3, 6]?
Answer: 34 nM

Question: With `CC(c1cccnc1N)N1CCOc2nc(-c3cc(O)cc(Cl)c3C3CC3)c(F)c3nc(OC[C@@]45CCCN4C[C@H](F)C5)nc1c23` (single isomer, unassigned) [Compound 43, 3-(10-((R or S)-1-(2-aminopyridin-3-yl)ethyl)-4-fluoro-2-(((2R,7aS)-2-fluorotetrahydro-1H-pyrrolizin-7a(5H)-yl)methoxy)-9,10-dihydro-8H-7-oxa-1,3,6,10-tetraazacyclohepta[de]naphthalen-5-yl)-5-chloro-4-cyclopropylphenol] as the molecule, how does the IC50 [1, 4] read?
Answer: > 1000 nM

Question: What about the IC50 [2, 5] of the same molecule?
Answer: > 1000 nM

Question: And the IC50 [3, 6]?
Answer: > 1000 nM

Question: Which results are given for `Cc1cc2[nH]ncc2c(-c2nc3c4c(nc(OC[C@@]56CCCN5C[C@H](F)C6)nc4c2F)N([C@H](C)c2cc(F)cnc2N)[C@@H](C)CO3)c1C(F)(F)F` [Compound 342]?
Answer: IC50 [1, 4]: 0.4 nM; IC50 [2, 5]: 0.2 nM; IC50 [3, 6]: 0.3 nM

Question: Which results are given for `CC(c1cccnc1N)N1CCOc2nc(-c3cc(O)cc4ccc(F)c(F)c34)c(F)c3nc(OC[C@H]4COCCN4)nc1c23` (stereo partly drawn) [Compound 12]?
Answer: IC50 [1, 4]: 192 nM; IC50 [2, 5]: 54 nM; IC50 [3, 6]: > 1000 nM

Question: `Cc1cc(N)cc(-c2nc3c4c(nc(OC[C@@H]5CCCN5C)nc4c2F)N(C(C)c2cccnc2N)CCO3)c1C(F)(F)F` (single isomer, unassigned) [Compound 76, 3-((R or S)-1-(5-(5-amino-3-methyl-2-(trifluoromethyl)phenyl)-4-fluoro-2-(((S)-1-methylpyrrolidin-2-yl)methoxy)-8,9-dihydro-10H-7-oxa-1,3,6,10-tetraazacyclohepta[de]naphthalen-10-yl)ethyl)pyridin-2-amine] was tested. Which IC50 [1, 4] did it give?
Answer: 0.7 nM

Question: What about the IC50 [2, 5] of the same molecule?
Answer: 0.5 nM

Question: And the IC50 [3, 6]?
Answer: 18 nM

Question: Which results are given for `CC(c1cccnc1N)N1c2nc(OC[C@@]34CCCN3C[C@H](F)C4)nc3c(F)c(-n4nc(N)c5ccccc54)nc(c23)OC[C@@H]1C` (stereo partly drawn) [Compound 336, (*)1-((9S)-10-(1-(2-aminopyridin-3-yl)ethyl)-4-fluoro-2-(((2R,7aS)-2-fluorotetrahydro-1H-pyrrolizin-7a(5H)-yl)methoxy)-9-methyl-9,10-dihydro-8H-7-oxa-1,3,6,10-tetraazacyclohepta[de]naphthalen-5-yl)-1H-indazol-3-amine]?
Answer: IC50 [1, 4]: > 100 nM; IC50 [2, 5]: > 100 nM; IC50 [3, 6]: > 100 nM

Question: With `CC(c1cccnc1N)N1CCOc2nc(-c3cc(N)cc(Cl)c3C3CC3)c(F)c3nc(OC[C@@]45CCCN4C[C@H](F)C5)nc1c23` (stereo partly drawn) [Compound 66] as the molecule, how does the IC50 [1, 4] read?
Answer: 0.4 nM

Question: And the IC50 [2, 5]?
Answer: 0.2 nM

Question: What about the IC50 [3, 6] of the same molecule?
Answer: 3 nM

Question: Which results are given for `Cc1cc(N)cc(-c2nc3c4c(nc(OC[C@@]56CCCN5C[C@H](F)C6)nc4c2F)N([C@H](C)c2cccnc2N)CCCO3)c1C(F)(F)F` (single isomer, unassigned) [Compound 166, 3-((R or S)-1-(5-(5-amino-3-methyl-2-(trifluoromethyl)phenyl)-4-fluoro-2-(((2R,7aS)-2-fluorotetrahydro-1H-pyrrolizin-7a(5H)-yl)methoxy)-9,10-dihydro-77-oxa-1,3,6,11-tetraazacycloocta[de]naphthalen-11(8H)-yl)ethyl)pyridin-2-amine]?
Answer: IC50 [1, 4]: > 100 nM; IC50 [2, 5]: 69 nM; IC50 [3, 6]: > 100 nM

Question: For `Cc1cc(N)cc(-c2nc3c4c(nc(OC[C@H]5CCCN5CCF)nc4c2F)N(C(C)c2cccnc2N)CCO3)c1C(F)(F)F` (single isomer, unassigned) [Compound 78, 3-((R or S)-1-(5-(5-amino-3-methyl-2-(trifluoromethyl)phenyl)-4-fluoro-2-(((R)-1-(2-fluoroethyl)pyrrolidin-2-yl)methoxy)-8,9-dihydro-10H-7-oxa-1,3,6,10-tetraazacyclohepta[de]naphthalen-10-yl)ethyl)pyridin-2-amine], which IC50 [1, 4] is on record?
Answer: 3 nM

Question: What about the IC50 [2, 5] of the same molecule?
Answer: 2 nM

Question: What about the IC50 [3, 6] of the same molecule?
Answer: 42 nM

Question: `CC(c1cccnc1N)N1CCOc2nc(-c3c(C(F)(F)F)ccc4[nH]ncc34)c(F)c3nc(OC[C@@]45CCCN4C[C@H](F)C5)nc1c23` (stereo partly drawn) [Compound 15] was tested. Which IC50 [1, 4] did it give?
Answer: 17 nM

Question: What about the IC50 [2, 5] of the same molecule?
Answer: 2 nM

Question: What about the IC50 [3, 6] of the same molecule?
Answer: 175 nM

Question: Which results are given for `CCNC(=O)Oc1cc(-c2nc3c4c(nc(OC[C@@]56CCCN5C[C@H](F)C6)nc4c2F)N(C(C)c2cccnc2N)[C@@H](C)CO3)c2c(CC)c(F)ccc2c1` (stereo partly drawn) [Compound 294]?
Answer: IC50 ([1]; read-out: NCI-H441 (KRAS G12V) IC50, pERK1/2, 2 days): 2 nM; IC50 ([2]; read-out: NCI-H358 (KRAS G12C) IC50, pERK1/2, 2 days): 0.8 nM; IC50 ([3]; read-out: PANC-1 (KRAS G12D) IC50, pERK1/2, 2 days): 0.5 nM
